The NIST ThermoML archive (doi:10.1016/j.jct.2006.03.002)

Experiment: molar heat capacity at constant pressure
Details: 101.33 kPa, Crystal, Small sample (50 mg) DSC

[F-].[Na+] [sodium fluoride]
Details | molar heat capacity at constant pressure [J/K/mol]
630.6 K | 58.08
645.6 K | 58.11
675.7 K | 59.55
690.6 K | 59.36
720.6 K | 58.15
735.5 K | 59.11
750.6 K | 58.85
765.6 K | 59.28
795.6 K | 58.36
825.5 K | 58.26
840.4 K | 58.49
855.6 K | 59.14
870.6 K | 58.37
885.5 K | 59.37
900.5 K | 59.7
907.5 K | 59.76
915.5 K | 60.11
922.3 K | 60.21
937.4 K | 60.58
945.5 K | 59.64
952.5 K | 59.98
960.6 K | 60.43
967.5 K | 60.92
975.4 K | 59.89
982.6 K | 60.11
990.5 K | 61.01
997.5 K | 60.91
1012.6 K | 61.02
1027.6 K | 60.56
1042.6 K | 61.86
1057.7 K | 61.63
1072.7 K | 62.08
1087.8 K | 62.41
1102.9 K | 62.25
